# Experimental data: the supplement of paper PMC6045584
# ± gives the standard deviation of the averaged measurements.
# Tests used:
# Assay in all cases: surviving fraction relative to DMSO-only wells; higher = less growth inhibition
# Conditions in all cases: exposure time: 5 days
# [1] = compound: Cn1cc(C2=Nc3cc(NC(=O)C(N)C4CCCCC4)cc4c3C2=CNNC4=O)cn1
# Outline: (§1)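 Inhibitors were tested at 0.5, 1, 5, 10, 50, 100, 500 and 1000 nM, applied continuously for five days beginning 24 hours after log-phase tumour cells were seeded at 250–500 per well in 384-well plates. CellTiter-Glo luminescence served as the viability measure, expressed as surviving fraction against the median of DMSO-only wells. Each line, screened three times, was kept only with replicate Pearson r >0.7 and median Z' >0.3.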
# TIOGUANINE = compound: Nc1nc2[nH]cnc2c(=S)[nH]1 [TIOGUANINE]
# Outline: as §1
# AFATINIB = compound: CN(C)C/C=C/C(=O)Nc1cc2c(Nc3ccc(F)c(Cl)c3)ncnc2cc1O[C@H]1CCOC1 [AFATINIB]
# Outline: as §1
# SNX-5422 = compound: CC1(C)CC(=O)c2c(C(F)(F)F)nn(-c3ccc(C(N)=O)c(N[C@H]4CC[C@H](OC(=O)CN)CC4)c3)c2C1 [SNX-5422]
# Outline: as §1
# BI-2536 = compound: CC[C@@H]1C(=O)N(C)c2cnc(Nc3ccc(C(=O)NC4CCN(C)CC4)cc3OC)nc2N1C1CCCC1 [BI-2536]
# Outline: as §1
test system,measurement,setting,value
CAL120 BREAST,surviving fraction,[1]; 50 nM,0.966 ± 0.029
same,surviving fraction,[1]; 100 nM,0.856 ± 0.044
same,surviving fraction,[1]; 500 nM,0.375 ± 0.02
same,surviving fraction,[1]; 1000 nM,0.24 ± 0.023
same,surviving fraction,TIOGUANINE; 0.5 nM,0.912 ± 0.028
same,surviving fraction,TIOGUANINE; 1 nM,0.943 ± 0.014
same,surviving fraction,TIOGUANINE; 5 nM,0.9412 ± 0.0032
same,surviving fraction,TIOGUANINE; 10 nM,0.919 ± 0.028
same,surviving fraction,TIOGUANINE; 50 nM,0.95 ± 0.021
same,surviving fraction,TIOGUANINE; 100 nM,0.939 ± 0.02
same,surviving fraction,TIOGUANINE; 500 nM,0.88 ± 0.035
same,surviving fraction,TIOGUANINE; 1000 nM,0.826 ± 0.036
same,surviving fraction,AFATINIB; 0.5 nM,0.955 ± 0.035
same,surviving fraction,AFATINIB; 1 nM,0.96 ± 0.0041
same,surviving fraction,AFATINIB; 5 nM,0.968 ± 0.035
same,surviving fraction,AFATINIB; 10 nM,0.928 ± 0.013
same,surviving fraction,AFATINIB; 50 nM,0.908 ± 0.032
same,surviving fraction,AFATINIB; 100 nM,0.852 ± 0.029
same,surviving fraction,AFATINIB; 500 nM,0.671 ± 0.01
same,surviving fraction,AFATINIB; 1000 nM,0.471 ± 0.038
same,surviving fraction,SNX-5422; 0.5 nM,0.993 ± 0.019
same,surviving fraction,SNX-5422; 1 nM,0.946 ± 0.034
same,surviving fraction,SNX-5422; 5 nM,0.962 ± 0.057
same,surviving fraction,SNX-5422; 10 nM,0.875 ± 0.057
same,surviving fraction,SNX-5422; 50 nM,0.149 ± 0.013
same,surviving fraction,SNX-5422; 100 nM,0.132 ± 0.0094
same,surviving fraction,SNX-5422; 500 nM,0.083 ± 0.0092
same,surviving fraction,SNX-5422; 1000 nM,0.0862 ± 0.0052
same,surviving fraction,BI-2536; 0.5 nM,0.941 ± 0.025
same,surviving fraction,BI-2536; 1 nM,0.431 ± 0.034
same,surviving fraction,BI-2536; 5 nM,0.176 ± 0.0061
same,surviving fraction,BI-2536; 10 nM,0.151 ± 0.013
same,surviving fraction,BI-2536; 50 nM,0.126 ± 0.01
same,surviving fraction,BI-2536; 100 nM,0.113 ± 0.0079
same,surviving fraction,BI-2536; 500 nM,0.0725 ± 0.0027
same,surviving fraction,BI-2536; 1000 nM,0.0657 ± 0.0062
